Results on one compound are retold here after patent publication US11506670B2, “Method of genome-wide direct identification of electrophile-sensing targets” (Cornell University, priority 2018, dated 2022).

The structures appear in SMILES notation.

In experiment [1] the test system is ten HaloTag proteins in HEK-293 cells. The experiment in a line: T-REX gel-based screen of Halo ORF clones for HNE-sensitive targets. The format is cell-based. The protocol: Individual wells in a 48-well plate contained live HEK-293 cells ectopically expressing a unique HaloTagged gene of interest. The cells were subjected to T-REX™ delivery-HNE(alkyne) targeting on demand. Post cell lysis, all samples were treated with TEV protease and subsequently subjected to Click coupling reaction with Cy5 azide. Probing with Halo antibody allowed evaluation of expression level (and/or solubility under the lysis conditions used). […] For example, RRM1, PRKCD, p53R2, and Keap1 (positive control) had roughly similar expression levels. Only RRM1 and Keap1 were HNE-sensitive although all four targets have been previously identified to be potentially redox/HNE-sensitive (Holmstrom et al., “Cellular Mechanisms and Physiological Consequences of Redox-Dependent Signalling,” Nat. Rev. Mol. Cell. Biol. 15:411-21 (2014); Jacobs et al., “Systems Analysis of Protein Modification and Cellular Responses Induced by Electrophile Stress,” Acc. Chem. Res. 43:673-83 (2010); Delmastro-Greenwood et al., “Redox-Dependent Anti-Inflammatory Signaling Actions of Unsaturated Fatty Acids,” Annu. Rev. Physiol. 76:79-105 (2014); Crunkhorn S., “Deal Watch: Abbott Boosts Investment in NRF2 Activators for Reducing Oxidative Stress,” Nat. Rev. Drug Discov. […]

For experiment [2], the system named is HaloTag-fused proteins of interest (POI). Nature of the experiment: T-REX targeting efficiency by Click coupling, in-gel fluorescence. The note with it: equation of Step 40A (ix). The format is cell-based. The protocol: (i) For mammalian cells, add 15 μL freshly prepared lysis buffer (50 mM Hepes pH 7.6, 0.3 mM TCEP and 1% Nonidet p-40) to mammalian cell pellets from Step 2A above and subject to 3 cycles of freeze-thaw. For E. coli cells, resuspend cell pellet in 100 μL lysis buffer consisting of 50 mM HEPES pH 7.6, 2 mM TCEP, 1% Nonidet p-40, 150 μg/mL Lysozyme, 5 μg/mL DNAse-I. Incubate for 20 min at room temperature with agitation. For mammalian cells make sure the cells are resuspended well in lysis buffer.
(iv) Dilute a portion of the clarified lysate to 1 mg/mL in a final volume of ˜25 μL containing 50 mM Hepes pH 7.6, 0.3 mM TCEP, and 0.2 mg/mL His6-TEV-S219V. Incubate at 37° C. for 45 min. The optimal concentration of lysate protein is ˜1.0 mg/mL. High concentration of lysate protein causes failure of Click coupling. Precipitates may appear upon adding His6-TEV-S219V. […]
(vii) Upon completion of the gel-electrophoresis, rinse the gel with ddH2O 20 mL (×2, 5 min) and analyze for Cy5 signal using a ChemiDoc-MP imaging system (Bio-Rad) (see Equipment Setup). Any alternative fluorescence gel imager platforms can be used in this step. […]
(x) Bio-Rad Image Lab™ software is used to quantitate the intensities of Cy5 signal and western blot signal. […] Click on “Analysis table” to generate the quantitated signal intensities corresponding to selected bands. […]

For `CCCCCC(O)/C=C/C=O` (centres unmarked) [HNE, 4-hydroxynonenal], in experiment [1], the “proteins modified by HNE in the screen besides positive control Keap1” value is “RRM1 and HSPB7”. Further, the targeting efficiency in experiment [2] is listed as 10-40%.
